From patent publication US20250230193A1, “CYCLIC COMPOUND HAVING SELECTIVE KRAS INHIBITORY EFFECT ON HRAS AND NRAS” (CHUGAI SEIYAKU KABUSHIKI KAISHA, priority 2022, published 2025)
*1 amine or outer side, *2 acyl side, *3 side chain or, on linkers, in order; H or OH if unused. Where a SMILES comes first, the peptide text is derived from it. Bridges are numbered along the chain shown (N, C = ends). [ ]: non-standard residue; d: D form. The star is where a group is joined. hPhe(3-Cl-4-CF3) = N[C@@H](CCc1ccc(C(F)(F)F)c(Cl)c1)C(=O)O; X42 = COCCCN([C@@H](Cc1ccc(C(F)(F)F)cc1)C(=O)[*:2])[*:1]; NPrPhe(4-CF3) = CCCN[C@@H](Cc1ccc(C(F)(F)F)cc1)C(=O)O; NMeGly(cPent) = CN[C@H](C(=O)O)C1CCCC1; Hyp = O=C(O)[C@@H]1C[C@@H](O)CN1; NMeD = CN[C@@H](CC(=O)O)C(=O)O; NMeL = CN[C@@H](CC(C)C)C(=O)O; Morpholide = C1CN(*)CCO1; Ac5c = NC1(C(=O)O)CCCC1; Aze = O=C(O)[C@@H]1CCN1; Sar = CNCC(=O)O

Key:
[1] = target: GDP-bound NRAS wild-type protein (Homo sapiens, UniProt P01111); assay: Binding to NRAS by surface plasmon resonance (SPR), Single Cycle Kinetics
GDP-bound NRAS wild-type protein, sequence (P01111 whole entry): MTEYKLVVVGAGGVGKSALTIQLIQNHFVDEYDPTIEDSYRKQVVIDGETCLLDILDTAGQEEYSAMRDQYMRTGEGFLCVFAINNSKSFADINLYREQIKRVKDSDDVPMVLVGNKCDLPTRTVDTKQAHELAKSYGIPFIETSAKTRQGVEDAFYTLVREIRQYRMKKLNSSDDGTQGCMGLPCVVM

[2] = target: GDP-bound HRAS wild-type protein (Homo sapiens, UniProt P01112); assay: Binding to HRAS by surface plasmon resonance (SPR), Single Cycle Kinetics
GDP-bound HRAS wild-type protein, sequence (P01112 whole entry): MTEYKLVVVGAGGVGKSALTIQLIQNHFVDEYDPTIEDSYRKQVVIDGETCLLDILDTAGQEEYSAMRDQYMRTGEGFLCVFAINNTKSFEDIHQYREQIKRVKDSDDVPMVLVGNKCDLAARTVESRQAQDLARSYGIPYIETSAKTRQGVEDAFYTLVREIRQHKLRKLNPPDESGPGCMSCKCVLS

[3] = KD ratio, GDP-bound NRAS wild-type vs GDP-bound KRAS wild-type, SPR
[4] = KD ratio, GDP-bound HRAS wild-type vs GDP-bound KRAS wild-type, SPR

SMILES: CC[C@H](C)[C@@H]1NC(=O)[C@H](CC2CC2)N(C)C(=O)C[C@@H](C(=O)N(C)C)N(C)C(=O)[C@H](C2CCCC2)N(C)C(=O)C2(CC(C)(C)C2)NC(=O)[C@@H]2CC(F)(F)CN2C(=O)[C@H](CCc2cc(F)c(C(F)(F)F)c(F)c2)NC(=O)CN(C)C(=O)[C@H](Cc2ccc(C(F)(F)F)cc2)N2CC/C=C\C[C@@H](C2=O)N(C)C(=O)CN(C)C1=O [PP1713]
- NRAS/KRAS (ratio of KD value for NRAS to KD value for KRAS) [1, 3]: A (a compound having 10 or more and less than 20 is denoted as A)
- HRAS/KRAS (ratio of KD value for HRAS to KD value for KRAS) [2, 4]: A (a compound having 10 or more and less than 20 is denoted as A)

SMILES: CCO[C@@H]1C[C@H]2C(=O)NC3(CCC3)C(=O)N(C)[C@@H](C3CCCC3)C(=O)N(C)[C@H](C(=O)N(C)C)CC(=O)N(C)[C@@H](Cc3ccc(C#N)cc3)C(=O)N[C@@H]([C@@H](C)CC)C(=O)N(C)CC(=O)N(C)[C@H]3CCCCCN(C3=O)[C@@H](Cc3ccc(F)cc3)C(=O)N(C)CC(=O)N[C@@H](CCc3cc(F)c(C(F)(F)F)c(F)c3)C(=O)N2C1 [PP1157]
- NRAS/KRAS (ratio of KD value with respect to NRAS to KD value with respect to KRAS) [1, 3]: B (a compound having 3 or more and less than 10 is denoted as B)
- HRAS/KRAS (ratio of KD value with respect to HRAS to KD value with respect to KRAS) [2, 4]: B (a compound having 3 or more and less than 10 is denoted as B)

SMILES: CC[C@H](C)[C@@H]1NC(=O)[C@H](CC(C)C)N(C)C(=O)C[C@@H](C(=O)N2CCOCC2)N(C)C(=O)[C@H](C2CCCC2)N(C)C(=O)C2(CCCC2)NC(=O)[C@@H]2CCCN2C(=O)[C@H](CCc2ccc(C(F)(F)F)c(Cl)c2)NC(=O)CN(C)C(=O)[C@H](Cc2ccc(C(F)(F)F)cc2)N(CCCOC)C(=O)CN(C)C(=O)CN(C)C1=O [PP0133] ([NMeL]I[Sar][Sar][X42][Sar][hPhe(3-Cl-4-CF3)]P[Ac5c][NMeGly(cPent)][NMeD]-Morpholide; lactam N-11)
- NRAS/KRAS (ratio of KD for GDP-bound NRAS wild-type to KD for KRAS) ([1]; SPR): B (a compound having 3 or more and less than 10 is denoted as B)
- HRAS/KRAS (ratio of KD for GDP-bound HRAS wild-type to KD for KRAS) ([2]; SPR): C (A compound having a KD ratio of 0.1 or more and less than 3 is denoted as C)

SMILES: CCC[C@H]1C(=O)N[C@@H]([C@@H](C)CC)C(=O)N2C[C@@H](OC)C[C@H]2C(=O)N(C)[C@H]2C/C=C\CCN(C2=O)[C@@H](Cc2ccc(C)cc2)C(=O)N(C)CC(=O)N[C@@H](CCc2cc(F)c(C(F)(F)F)c(F)c2)C(=O)N2C[C@H](OCC)C[C@H]2C(=O)NC2(CC(C)(C)C2)C(=O)N(C)[C@@H](C2CCCC2)C(=O)N(C)[C@H](C(=O)N(C)C)CC(=O)N1C [PP2556]
- NRAS/KRAS (ratio of KD value with respect to GDP-bound NRAS wild-type protein to KD value with respect to KRAS) ([1]; class symbols): A (a compound having 10 or more and less than 20 is denoted as A)
- HRAS/KRAS (ratio of KD value with respect to GDP-bound HRAS wild-type protein to KD value with respect to KRAS) ([2]; class symbols): B (a compound having 3 or more and less than 10 is denoted as B)

SMILES: CCC[C@H]1C(=O)N[C@@H](CC(C)C)C(=O)N(CC)CC(=O)N(C)[C@H]2C/C=C\CCN(C2=O)[C@@H](Cc2ccc(C)cc2)C(=O)N(C)CC(=O)N[C@@H](CCc2ccc(C(F)(F)F)c(Cl)c2)C(=O)N2C[C@H](OCC)C[C@H]2C(=O)NC2(CC(C)(C)C2)C(=O)N(C)[C@@H](C2CCCC2)C(=O)N(C)[C@H](C(=O)N(C)C)CC(=O)N1C [PP2528]
- NRAS/KRAS (ratio of KD value with respect to GDP-bound NRAS wild-type protein to KD value with respect to KRAS) ([1]; class symbols): A (a compound having 10 or more and less than 20 is denoted as A)
- HRAS/KRAS (ratio of KD value with respect to GDP-bound HRAS wild-type protein to KD value with respect to KRAS) ([2]; class symbols): B (a compound having 3 or more and less than 10 is denoted as B)

SMILES: CCCN1C(=O)CN(C)C(=O)[C@@H]2CCN2C(=O)[C@H]([C@@H](C)CC)NC(=O)[C@H](CC(C)C)N(C)C(=O)C[C@@H](C(=O)N2CCOCC2)N(C)C(=O)[C@H](C2CCCC2)N(C)C(=O)C2(CCCC2)NC(=O)[C@@H]2C[C@@H](OCC)CN2C(=O)[C@H](CCc2ccc(C(F)(F)F)c(Cl)c2)NC(=O)CN(C)C(=O)[C@@H]1Cc1ccc(C(F)(F)F)cc1 [PP0310] ([NMeL]I[Aze][Sar][NPrPhe(4-CF3)][Sar][hPhe(3-Cl-4-CF3)][Hyp](Et)[Ac5c][NMeGly(cPent)][NMeD]-Morpholide; lactam N-11)
- NRAS/KRAS (ratio of KD for GDP-bound NRAS wild-type to KD for KRAS) ([1]; SPR): B (a compound having 3 or more and less than 10 is denoted as B)
- HRAS/KRAS (ratio of KD for GDP-bound HRAS wild-type to KD for KRAS) ([2]; SPR): C (A compound having a KD ratio of 0.1 or more and less than 3 is denoted as C)

SMILES: CCO[C@@H]1C[C@H]2C(=O)NC3(CC(C)(C)C3)C(=O)N(C)[C@@H](C3CCCC3)C(=O)N(C)[C@H](C(=O)N(C)C)CC(=O)N(C)[C@H]3CCCC/C=C/c4ccc(cc4)C[C@@H](C(=O)N(C)CC(=O)N[C@@H](CCc4ccc(C(F)(F)F)c(OC)c4)C(=O)N2C1)N1CC/C=C\C[C@@H](C1=O)N(C)C(=O)CN(C)C(=O)[C@H]([C@@H](C)CC)NC3=O [PP1832]
- NRAS/KRAS (ratio of KD value for NRAS to KD value for KRAS) [1, 3]: B (a compound having 3 or more and less than 10 is denoted as B)
- HRAS/KRAS (ratio of KD value for HRAS to KD value for KRAS) [2, 4]: B (a compound having 3 or more and less than 10 is denoted as B)

SMILES: CCO[C@@H]1C[C@H]2C(=O)NC3(CCC3)C(=O)N(C)[C@@H](C3CCCC3)C(=O)N(CC)[C@H](C(=O)N3CCOCC3)CC(=O)N(C)[C@@H](CC(C)C)C(=O)N[C@@H]([C@@H](C)CC)C(=O)N(C)CC(=O)N(C)[C@H]3CCCCCN(C3=O)[C@@H](Cc3ccc(C(F)(F)F)cc3)C(=O)N(C)CC(=O)N[C@@H](CCc3cc(F)c(C(F)(F)F)c(F)c3)C(=O)N2C1 [PP0638]
- NRAS/KRAS (ratio of KD value with respect to GDP-bound NRAS wild-type protein to KD value with respect to KRAS) ([1]; SPR): B (a compound having 3 or more and less than 10 is denoted as B)
- HRAS/KRAS (ratio of KD value with respect to GDP-bound HRAS wild-type protein to KD value with respect to KRAS) ([2]; SPR): B (a compound having 3 or more and less than 10 is denoted as B)
